The record followed here is US20230079045A1 (priority 2019, published 2023).

SMILES strings stand for the structures. Where two headings read alike, the source gives them in different places.

In one assay the test system is IFVA/Mal/302/54. Nature of the assay: cytopathic effect (CPE) antiviral test in MDCK cells, IFVA/Mal/302/54. The format is cell-based, influenza virus.
In the next assay the test system is IFVA/Weiss/43. Nature of the assay: cytopathic effect (CPE) antiviral test in MDCK cells, IFVA/Weiss/43. It counts as cell-based, influenza virus.
Setting [1] is: unidentified influenza virus, MDCK, 120 h, read-out: EC50(IFVA/Mal/302/54), MDCK cells, CPE method, CCK-8 cell viability, 5 days.
Where [2] appears, read: unidentified influenza virus, MDCK, 120 h, read-out: EC50(IFVA/Weiss/43), MDCK cells, CPE method, CCK-8 cell viability, 5 days.
The mark [3] stands for this setting: read-out: EC50(IFVA/Mal/302/54), MDCK cells, CPE method, CCK-8 cell viability, 5 days.
[4] abbreviates: read-out: EC50(IFVA/Weiss/43), MDCK cells, CPE method, CCK-8 cell viability, 5 days.

Turning to `O=C(Nc1ccc2oc(-c3ccnc(C(=O)N4CCN(C(c5ccccc5)c5nnn(C(F)F)n5)CC4)c3)nc2c1)[C@@H]1C[C@H]1F` (stereo partly drawn) [Compound 30, (1S,2R)-2-fluoro-N-(2-(2-(4-((2-difluoromethyl-2H-tetrazol-5-yl)(phenyl)methyl)piperazine-1-carbonyl)pyridin-4-yl)benzo[d]oxazol-5-yl)cyclopropane-1-carboxamide], the EC50 in the assay with IFVA/Mal/302/54 (setting [1]) stood at 27 nM; with IFVA/Weiss/43 (setting [2]), 12 nM.
For the compound `Cn1nnc(C(c2ccccc2)N2CCN(C(=O)c3cc(-c4nc5cc(OC6CCOC6)ccc5o4)ccn3)CC2)n1` (stereo in doubt) [Compound 43, (4-((2-methyl-2H-tetrazol-5-yl)(phenyl)methyl)piperazin-1-yl)(4-(5-(((R)-tetrahydrofuran-3-yl)oxy)benzo[d]oxazol-2-yl)pyridin-2-yl)methanone], the EC50 amounted to 10 nM in the assay on IFVA/Mal/302/54 (setting [3]) and 57 nM with IFVA/Weiss/43 (setting [4]).
As to `Cn1nnc(C(c2ccccc2)N2CCN(C(=O)c3cc(-c4nc5cc(O[C@H]6CCOC6)ccc5o4)ccn3)CC2)n1` (stereo partly drawn) [Compound 38, (4-((2-methyl-2H-tetrazol-5-yl)(phenyl)methyl)piperazin-1-yl)(4-(5-(((S)-tetrahydrofuran-3-yl)oxy)benzo[d]oxazol-2-yl)pyridin-2-yl)methanone], the EC50 came to 18 nM in the assay with IFVA/Mal/302/54 (setting [1]) and 20 nM with IFVA/Weiss/43 (setting [4]).
As to `O=C(Nc1ccc2oc(-c3ccnc(C(=O)N4CCN(C(c5ccccc5)c5nnn(C(F)F)n5)CC4)c3)nc2c1)C1CC1` (racemic) [Compound 196, (R/S)—N-(2-(2-(4-((2-(difluoromethyl)-2H-tetrazol-5-yl)(phenyl)methyl)piperazine-1-carbonyl)pyridin-4-yl)benzo[d]oxazol-5-yl)cyclopropanecarboxamide], the EC50 with IFVA/Mal/302/54 (setting [1]) turned out to be 8 nM; with IFVA/Weiss/43 (setting [2]), 6 nM.
As to `CC(=O)Nc1ccc2oc(-c3ccnc(C(=O)N4CCC5(CC4)CN(C(c4ccccc4)c4nnn(C)n4)C5)c3)nc2c1` (centres unmarked) [Compound 13, N-(2-(2-(2-((2-methyl-2H-tetrazol-5-yl)(phenyl)methyl)-2,7-diazaspiro[3.5]nonane-7-carbonyl)pyridin-4-yl)benzo[d]oxazol-5-yl)acetamide], the results for the EC50 in the assay with IFVA/Mal/302/54 (setting [1]) and in the assay on IFVA/Weiss/43 (setting [2]) were 7830 nM and > 10000 nM, respectively.
On the same counts, the results for `O=C(Nc1ccc2oc(-c3ccnc(C(=O)N4CCN(C(c5ccccc5)c5nnn(C(F)F)n5)CC4)c3)nc2c1)[C@H]1C[C@H]1F` (stereo partly drawn) [Compound 33, (1R,2R)-2-fluoro-N-(2-(2-(4-((2-difluoromethyl-2H-tetrazol-5-yl)(phenyl)methyl)piperazine-1-carbonyl)pyridin-4-yl)benzo[d]oxazol-5-yl)cyclopropane-1-carboxamide] are 31 nM and 16 nM.
On the same counts, the results for `CS(=O)(=O)Nc1ccc2oc(-c3ccnc(C(=O)N4CCN(C(c5ccccc5)c5nnn(C(F)F)n5)CC4)c3)nc2c1` (centres unmarked) [Compound 34] are > 10000 nM and > 10000 nM.
In the case of `Cn1nnc(C(c2ccccc2)N2CCN(C(=O)c3cc(-c4nc5cc(NC(=O)[C@@H]6C[C@H]6F)ccc5o4)ccn3)CC2)n1` (stereo partly drawn) [Compound 25, (1S,2R)-2-fluoro-N-(2-(2-(4-((2-methyl-2H-tetrazol-5-yl)(phenyl)methyl)piperazine-1-carbonyl)pyridin-4-yl)benzo[d]oxazol-5-yl)cyclopropane-1-carboxamide], the figures for the EC50 with IFVA/Mal/302/54 (setting [1]) and in the assay on IFVA/Weiss/43 (setting [2]) were 68 nM and 60 nM, respectively.
The like results for `O=C1CCCN1c1ccc2oc(-c3ccnc(C(=O)N4C5CCC4CN(C(c4ccccc4)c4nnn(C(F)F)n4)C5)c3)nc2c1` (centres unmarked) [Compound 176, 1-(2-(2-(3-((2-(difluoromethyl)-2H-tetrazol-5-yl)(phenyl)methyl)-3,8-diazabicyclo[3.2.1]octane-8-carbonyl)pyridin-4-yl)benzo[d]oxazol-5-yl)pyrrolidin-2-one] were, in that order, 21 nM and 33 nM.
On the same counts, the results for `O=C(Nc1ccc2oc(-c3ccnc(C(=O)N4CCN(C(c5ccccc5)c5nnn(C(F)F)n5)CC4)c3)nc2c1)[C@H]1C[C@@H]1F` (stereo partly drawn) [Compound 32, (1R,2S)-2-fluoro-N-(2-(2-(4-((2-difluoromethyl-2H-tetrazol-5-yl)(phenyl)methyl)piperazine-1-carbonyl)pyridin-4-yl)benzo[d]oxazol-5-yl)cyclopropane-1-carboxamide] are 3 nM and 26 nM.
Regarding `O=C(Nc1ccc2oc(-c3ccnc(C(=O)N4C5CCC4CN(C(c4ccccc4)c4nnn(C(F)F)n4)C5)c3)nc2c1)C1CC1` (centres unmarked) [Compound 175, N-(2-(2-(3-((2-(difluoromethyl)-2H-tetrazol-5-yl)(phenyl)methyl)-3,8-diazabicyclo[3.2.1]octane-8-carbonyl)pyridin-4-yl)benzo[d]oxazol-5-yl)cyclopropanecarboxamide], the results for the EC50 in the assay with IFVA/Mal/302/54 (setting [1]) and with IFVA/Weiss/43 (setting [2]) were 21 nM and 13 nM, respectively.
Turning to `CC(=O)Nc1ccc2oc(-c3ccnc(C(=O)N4C[C@H]5C[C@@H]4CN5C(c4ccccc4)c4nnn(C)n4)c3)nc2c1` (stereo partly drawn) [Compound 6b, N-(2-(2-((1R,4R)-5-((2-methyl-2H-tetrazol-5-yl)(phenyl)methyl)-2,5-diazabicyclo[2.2.1]heptane-2-carbonyl)pyridin-4-yl)benzo[d]oxazol-5-yl)acetamide], the EC50 in the assay with IFVA/Mal/302/54 (setting [3]) and in the assay on IFVA/Weiss/43 (setting [4]) was > 10000 nM in each case.
Turning to `COC(=O)Nc1ccc2oc(-c3ccnc(C(=O)N4CCN(C(c5ccccc5)c5nnn(C)n5)CC4)c3)nc2c1` (centres unmarked) [Compound 51, Methyl (2-(2-(4-((2-methyl-2H-tetrazol-5-yl)(phenyl)methyl)piperazine-1-carbonyl)pyridin-4-yl)benzo[d]oxazol-5-yl)carbamate], the EC50 with IFVA/Mal/302/54 (setting [1]) was 34 nM; in the assay on IFVA/Weiss/43 (setting [2]) it was 84 nM.
For `Cn1nnc(C(c2ccccc2)N2CCN(C(=O)c3cc(-c4nc5cc(NC(=O)[C@@H]6CC6(F)F)ccc5o4)ccn3)CC2)n1` (stereo partly drawn) [Compound 24, (1S)-2,2-difluoro-N-(2-(2-(4-((2-methyl-2H-tetrazol-5-yl)(phenyl)methyl)piperazine-1-carbonyl)pyridin-4-yl)benzo[d]oxazol-5-yl)cyclopropane-1-carboxamide], the EC50 with IFVA/Mal/302/54 (setting [1]) stood at 32 nM; in the assay with IFVA/Weiss/43 (setting [2]), 12 nM.
On the same counts, the results for `CC(C)C(=O)Nc1ccc2oc(-c3ccnc(C(=O)N4CCN(C(c5ccccc5)c5nnn(C(F)F)n5)CC4)c3)nc2c1` (racemic) [Compound 97, (R/S)—N-(2-(2-(4-((2-(difluoromethyl)-2H-tetrazol-5-yl)(phenyl)methyl)piperazine-1-carbonyl)pyridin-4-yl)benzo[d]oxazol-5-yl)isobutyramide] are 6 nM and 7 nM.
On the same counts, the results for `O=C(c1cc(-c2nc3cc(O[C@H]4CCOC4)ccc3o2)ccn1)N1CCN(C(c2ccccc2)c2nnn(C(F)F)n2)CC1` (stereo partly drawn) [Compound 39, (4-((2-(difluoromethyl)-2H-tetrazol-5-yl)(phenyl)methyl)piperazin-1-yl)(4-(5-(((S)-tetrahydrofuran-3-yl)oxy)benzo[d]oxazol-2-yl)pyridin-2-yl)methanone] are 11 nM and 4 nM.
On the same counts, the results for `Cn1nnc(C(c2ccccc2)N2CCN(C(=O)c3cc(-c4nc5cc(NC(=O)[C@@H]6C[C@@H]6F)ccc5o4)ccn3)CC2)n1` (stereo partly drawn) [Compound 26, (1S,2S)-2-fluoro-N-(2-(2-(4-((2-methyl-2H-tetrazol-5-yl)(phenyl)methyl)piperazine-1-carbonyl)pyridin-4-yl)benzo[d]oxazol-5-yl)cyclopropane-1-carboxamide] are 20 nM and 3 nM.
For `CC(=O)Nc1ccc2oc(-c3ccc(C#N)c(C(=O)N4CCN(C(c5ccccc5)c5nnn(C)n5)CC4)c3)nc2c1` (centres unmarked) [Compound 15, N-(2-(4-cyano-3-(4-((2-methyl-2H-tetrazol-5-yl)(phenyl)methyl)piperazine-1-carbonyl)phenyl)benzo[d]oxazol-5-yl)acetamide], the EC50 with IFVA/Mal/302/54 (setting [1]) and in the assay with IFVA/Weiss/43 (setting [2]) was > 10000 nM throughout.
With `CC(=O)Nc1ccc2oc(-c3ccnc(C(=O)N4CCN(C(c5ccccc5)c5nnn(C(F)F)n5)CC4)c3F)nc2c1` (centres unmarked) [Compound 56, N-(2-(2-(4-((2-(difluoromethyl)-2H-tetrazol-5-yl)(phenyl)methyl)piperazine-1-carbonyl)-3-fluoropyridin-4-yl)benzo[d]oxazol-5-yl)acetamide], the EC50 was 33 nM in the assay with IFVA/Mal/302/54 (setting [1]) and 17 nM in the assay on IFVA/Weiss/43 (setting [2]).
The like results for `CC(=O)Nc1ccc2nc(-c3ccnc(C(=O)N4CCN(C(c5ccccc5)c5nnn(C(F)F)n5)CC4)c3)oc2c1` (centres unmarked) [Compound 70, N-(2-(2-(4-((2-(difluoromethyl)-2H-tetrazol-5-yl)(phenyl)methyl)piperazine-1-carbonyl)pyridin-4-yl)benzo[d]oxazol-6-yl)acetamide] were, in that order, 32 nM and 32 nM.
Take `CC(=O)Nc1cc2nc(-c3ccnc(C(=O)N4CCN(C(c5ccccc5)c5nnn(C(F)F)n5)CC4)c3)oc2cc1F` (centres unmarked) [Compound 59, N-(2-(2-(4-((2-(difluoromethyl)-2H-tetrazol-5-yl)(phenyl)methyl)piperazine-1-carbonyl)pyridin-4-yl)-6-fluorobenzo[d]oxazol-5-yl)acetamide]: the EC50 was 58 nM in the assay with IFVA/Mal/302/54 (setting [1]) and 56 nM in the assay with IFVA/Weiss/43 (setting [2]).
The like results for `CC(=O)Nc1ccc2nc(-c3ccnc(C(=O)N4CCN(C(c5ccccc5)c5nnn(C(F)F)n5)CC4)c3)oc2c1` (racemic) [Compound 90, (R/S)—N-(2-(2-(4-((2-(difluoromethyl)-2H-tetrazol-5-yl)(phenyl)methyl)piperazine-1-carbonyl)pyridin-4-yl)benzo[d]oxazol-6-yl)acetamide] were, in that order, 18 nM and 28 nM.
